Data from patent US6309842A, “Use of modified tethers in screening compound libraries” (Glaxo Wellcome Inc., priority 1997, dated 2001).

Tests used:
Assay type in all cases: cell-based
[1] = molecular target: T1, yeast α-factor receptor (STE2) (Saccharomyces cerevisiae, UniProt D6VTK4); assay: Secretion of acid phosphatase into the medium by yeast ARY84 (pNPP assay); settings: for % of total acid-phosphatase activity in medium: 24 Hrs; for Induction ratio: growth selection, 500 nM vs no alpha-factor
T1 construct: expressed in transfected cells; host or cells: yeast strain ARY84 (Δste2::ura3, plasmid pRS416(URA3)-STE2)
T1 sequence (D6VTK4 1-431): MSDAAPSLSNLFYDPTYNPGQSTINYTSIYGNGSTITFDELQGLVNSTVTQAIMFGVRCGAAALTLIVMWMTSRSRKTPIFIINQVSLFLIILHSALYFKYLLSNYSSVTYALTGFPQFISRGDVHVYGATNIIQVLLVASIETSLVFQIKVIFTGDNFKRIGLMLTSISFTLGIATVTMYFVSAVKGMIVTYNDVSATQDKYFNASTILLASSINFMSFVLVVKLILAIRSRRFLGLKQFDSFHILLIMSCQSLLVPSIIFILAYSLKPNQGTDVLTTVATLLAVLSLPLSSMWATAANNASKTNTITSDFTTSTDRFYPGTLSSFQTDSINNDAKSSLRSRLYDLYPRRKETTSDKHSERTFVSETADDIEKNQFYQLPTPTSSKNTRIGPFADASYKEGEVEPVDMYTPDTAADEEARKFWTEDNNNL
Source text: The strain used in these experiments is designated ARY84 (Mata prc1-407 prb1-1122 pep4-3 leu2, 3-112 ura3-52 trp1 far1::ura3 Δhis3::APT2 FUS1::HIS3 Δste2::ura3 Δsst2::ura3 Δpho5::TRP1 LEU2::pCMGy64(::FUS1-PHO3) [pRS416(URA3)-STE2]. This yeast is engineered to grow in the presence of an agonist, and also to secrete acid phosphatase as a result of agonist stimulation. The yeast strain used in these experiments bears a mutation in the SST2 gene to enhance sensitivity to agonist, an inactivating mutation in the FAR1 gene to allow growth in the presence of agonist and an inactivating mutation in the HIS3 gene. The FUS1 gene promoter stimulates transcription of two reporter genes. The first reporter gene is HIS3. 3-aminotriazole can be used to titrate out the background activity of the HIS3 gene product resulting in growth arrest due to histidine starvation. Stimulation of HIS3 transcription from the FUS1 promoter overcomes the inhibitory effect of 3-aminotriazole, allowing growth of agonist-stimulated yeast cells. The second reporter gene is PHO3 (which was obtained by PCR from yeast genomic DNA). This gene encodes secreted yeast acid phosphatase (see Johnston & Carlson, in The Molecular and Cellular Biology of the Yeast Saccharomyce, (eds. Jones et al., CSHP, 1992) Vol. 2, Ch. 5). STE2 encodes the yeast α-factor receptor. The mutation in the […] reduces the background of acid phosphatase secreted by the yeast, though this mutation may not be necessary.
α-factor is the natural peptide agonist of the yeast α-factor receptor. The term "Growth selection" refers to growing the yeast in a defined medium (e.g., synthetic complete) (see Rose et al., Methods in Yeast Genetics: A Laboratory Course Manual (CSHLP, 1990)) lacking histidine and containing sufficient 3-aminotriazole to inhibit growth such that yeast only grow when the HIS3 gene product is expressed from the FUS1 promoter following stimulation of the STE2 receptor by α-factor. Lack of growth selection is achieved by leaving out the 3-aminotriazole and adding histdine.
Acid phosphatase activity in the yeast growth medium was quantitated using a […] assay with the substrate para-nitrophenyl phosphate (pNPP), measuring the appearance of yellow color (Payne et al., Gene 163, 19-26 (1995). When yeast were grown under various growth conditions (+/-saturating (500 nM) concentrations of α-factor, between 26% and 69% of the total acid phosphatase activity is secreted into the medium (Table 1).

[2] = molecular target: T2, yeast alpha factor receptor (STE2) (Saccharomyces cerevisiae, UniProt D6VTK4); assay: Secreted β-galactosidase reporter in yeast ARY 110 (FUS1 promoter); settings: ARY110 culture supernatants
T2 construct: expressed in transfected cells; host or cells: yeast strain ARY 110 with plasmid pRS416-STE2
T2 sequence (D6VTK4 1-431): T1 sequence (D6VTK4 1-431)
Source text: A second expression system links the A. niger secreted β-galactosidasegene to the yeast mating pathway/FUS1 promoter induction system. Using the integrating beta-galactosidase encoding plasmid pCMGy69 in concert with the yeast alpha factor receptor (STE2) encoding plasmid, PRS416-STE2 (centomeric), a yeast strain designated ARY 110 was produced with the following genotype; (far1 his3 sst2 FUS1-HIS3 FUS1-sBeta-Gal STE2).

[3] = molecular target: T1, yeast α-factor receptor (STE2); assay: ELISA of agonist-induced well marking by ARY84 (dephosphorylation of AF12402 tether, 3E7 detection); settings: for Well-marking activity: selective conditions
Experimental: A plastic 96-well immunoassay plate (Beckman #373660) was coated with 0.41 μM streptavidin for 1 hour at 37° C. After washing, it was blocked with 1×PBS, 1% bovine serum albumin (BSA) for 1 hr at 37° C. After washing, 100 nM of AF12402 ((H)-(Phospho-Y)[…](biotin)(OH)) (SEQ ID NO:7) in 1×PBS, 0.1% BSA was incubated on the plate overnight at 4° C. The wells were washed with 1×PBS and a yeast culture containing ARY84 at a density of OD600 =0.1 in defined medium was added to the plate. The following conditions were tested: +growth selection, no α-factor; +growth selection, +500 nM α-factor.
After addition of yeast the culture was either removed immediately (t=0; wells were filled with 1×PBS/ 0.1% BSA) or after 24 hr incubation at 30° C. At the end of the incubation, the wells were washed and developed using a standard protocol with 1 nM 3E7 antibody for the primary development (4° C., 1 hr) and 1/1000 diluted alkaline phosphatase conjugated goat anti-mouse antibody (Gibco) at 4° C. for 1 hr. Binding of antibodies was quantitated using a standard colorimetric alkaline-phosphatase reaction (see Cull et al., PNAS 89, 1865-1869 (1992)).

Substance: α-factor
- Increase in acid phosphatase activity in the medium compared to absence of α-factor ([1]; 500 nM α-factor, no growth selection, 24 hr): 16-20 fold
- % of total acid-phosphatase activity in medium ([1]; alpha-factor +, growth selection +): 63%
- % of total acid-phosphatase activity in medium ([1]; alpha-factor +, growth selection -): 69%
- Acid phosphatase activity in the medium ([1]; 24 hours, selection +, alpha-factor +, clone #1): 0.01279 OD405 units/minute
- Acid phosphatase activity in the medium ([1]; 24 hours, selection +, alpha-factor +, clone s3): 0.02892 OD405 units/minute
- Acid phosphatase activity in the medium ([1]; 24 hours, selection -, alpha-factor +, clone #1): 0.06481 OD405 units/minute
- Acid phosphatase activity in the medium ([1]; 24 hours, selection -, alpha-factor +, clone s3): 0.1001 OD405 units/minute
- Acid phosphatase activity in the medium ([1]; 48 hr, growth selection (+10 mM 3-aminotriazole), 500 nM alpha-factor, clone #1): 0.05768 OD405 units/minute
- Acid phosphatase activity in the medium ([1]; 48 hr, growth selection (+10 mM 3-aminotriazole), 500 nM alpha-factor, clone s3): 0.1062 OD405 units/minute
- Induction ratio ([1]; 48 hr, clone #1): 32.4
- Induction ratio ([1]; 48 hr, clone s3): 58.7
- Increase in acid phosphatase activity in the medium compared to absence of α-factor ([1]; with growth selection, 48 hours, 0.5 µM): 32-58 fold
- beta-galactosidase activity in supernatants over non-induced levels [2]: up to 79 fold
- Increase in OD405 compared to wells lacking α-factor ([3]; 24 hr growth of yeast in the wells, 0.5 µM): 4 fold
- Well-marking activity ([3]; T = 0, 500 nM alpha factor): 0.11 OD405 units/minute
- Well-marking activity ([3]; T = 0, 500 nM alpha factor, listed as alpha factor): 0.113 OD405 units/minute
- Well-marking activity ([3]; T = 24 Hrs, 500 nM alpha factor): 0.8 OD405 units/minute
